Experimental data from article PMC9050848, “Carbamoyl-N-aryl-imine-urea: a new framework to obtain a putative leishmanicidal drug-candidate” (RSC Advances, 2020).

Experiments:
[1] = Plasma stability (UPLC-MS/MS recovery); type: in vitro ADME; conditions: 4 hours, 37 °C, rat plasma diluted 1:1 with PBS pH 7.4
Method: To investigate the potential plasma instability of the carbamoyl-N-arylimine-urea subunit, designed as a new peptide mimetic framework, compound 10e (LASSBio-1736) was selected to investigate its plasma stability,[21,22] previously to the evaluation of its in vivo leishmanicidal effect. Quantitation of 10e (LASSBio-1736), benzocaine standard (positive control; it means a substrate drug for plasma hydrolysis) and ketoconazole (internal standard) was determined by UPLC-MS/MS, after incubation of the compounds at 0, 30, 60, 120 and 240 min with rat plasma, and measuring the peak areas in three different experiments.
For analysis of plasma stability, 5 μL (250 ng mL^−1) of a concentrated solution of 10e (LASSBio-1736) or the positive control benzocaine (stock concentration = 10 000 ng mL^−1 solubilized in DMSO) was added in 195 μL of rat plasma solution (1 : 1) diluted with PBS (pH 7.4). […] The supernatant (400 μL) were placed in 2 mL vials, and analyzed by UPLC-MS/MS. […]
Detection in single reaction monitoring (SRM) mode was used for determination of the LASSBio-1736 (10e) m/z 419.1 → 205.0, benzocaine m/z 166.1 → 137.9 and ketoconazole (IS) 532.1 → 490.3, with a tolerance of mass deviation of 6 ppm, operating in positive ionization mode. The data were acquired using TraceFinder 3.2. software (Thermo Fisher Scientific, Waltham, USA), and analyzed using GraphPad Prism 5 program.

[2] = test system: L. braziliensis intracellular amastigotes; experiment: Leishmanicidal activity against intracellular amastigote forms of L. braziliensis in J774.A1 macrophages; type: cell-based; conditions: Leishmania braziliensis
Description: Further, the leishmanicidal activity against intracellular amastigotes forms of L. braziliensis were also investigated (Table 2).
Promastigotes of L. amazonensis (MHOM/BR/77/LTB0016) were obtained from Dr Eduardo Caio Torres dos Santos at Oswaldo Cruz Institute – Fiocruz. Promastigotes of L. braziliensis (MHOM/BR/01/BA788) were obtained from Dr Valéria de Matos Borges at Gonçalo Moniz Research Center – Fiocruz. The parasites were maintained in vitro in Schneider's medium, supplemented with 10% FBS and 2% human urine at 27 °C in BOD incubator.
Initially, compounds 9a–e and 10a–e were evaluated at screening concentration of 30 μM against L. amazonensis, using DMSO 0.03% as vehicle control, since this was the DMSO concentration (vehicle) remaining in each well with the tested compounds. […] Vehicle control used was DMSO 0.1%, since this was the concentration of DMSO (vehicle) existing in each well with the tested substances in the highest concentration used.
To assess the activity of the test derivatives against the amastigote stage of L. amazonensis and L. braziliensis the model of infection in coverglass was realized.[31] The murine macrophages (J774.A1 cell line) were prepared in 24-well cell culture plate (flat bottom, clear, Corning) at 2 × 10^5 adherent cells per well, infected with 2 × 10^6 promastigotes in glass coverslips placed inside 1 mL medium culture. The cultures were cultured or not with the test derivatives or reference drugs, and kept for 24 h at 37 °C, 5% CO2. After 24 h of incubation, the coverslips were washed, stained with Giemsa–May–Grünwald, and intracellular amastigotes were counted in 100 macrophages, using an optical microscope, on the objective of 100×. Thus, during the counting of 100 macrophages, the amount of amastigotes present within these defence cells was also determined. Data obtained from in vitro experiments were expressed as the mean ± S.E.M. of duplicate cultures of representative assays. Statistical differences between the treated and the control groups were evaluated by ANOVA and Dunnett hoc tests. Differences with a p value < 0.05 or lower were considered significant.

With `O=C(N/N=C/c1ccc(C(F)(F)F)cc1)NNC(=O)c1ccc(Cl)cc1Cl` [LASSBio-1736 (10e), 2,4-dichloro-phenylcarbamoyl-N-4-trifluoromethylphenylimine-urea] as the molecule, how does the “Compound recovery after incubation with rat plasma” value [1] read?
The value was “completely recovered”.

And the IC50 ([2]; J774.A1, 24 h, read-out: IC50 (concentration required to give 50% death of parasites))?
The IC50 was 5.3 ± 2.6 µM.

And the Emax ([2]; J774.A1, L. braziliensis intracellular amastigotes, maximum toxicity vs 0.1% DMSO group, read-out: Maximum effect (% ± S.E.M.))?
Its Emax is 57.2 ± 5.2%.
